Measured values taken from US10159659B2, “Predicting response to cancer therapy” (BIONOMICS LIMITED, priority 2014, dated 2018).

Legend:
[1] = Maximum tolerated dose of BNC105P by intravenous infusion in patients; assay type: in vivo, human; conditions: intravenous infusion over 10 minutes, days 1 and 8 of 21 day cycle, with 10 mg oral everolimus daily
Method: Patients in the BNC105P in combination with everolimus study group (the “combination arm”) were administered 10 mg oral everolimus daily. On days 1 and 8 of the 21 day cycle period, the patients were administered 16 mg/m^2 BNC105P, which had been determined to be the maximum tolerated dose, by intravenous infusion over a 10 minute period (FIG. 1). Treatment was continued until disease progressed, intolerable toxicity became apparent, or until consent was withdrawn. A control group of patients were administered with everolimus alone.

[2] = tested on: tumour endothelial cells (activated) and normal endothelial cells (quiescent); assay: Potency against activated versus quiescent endothelial cells; assay type: cell-based
[3] = tested on: Metastatic Clear Cell Renal Cell Carcinoma; assay: Disruptor-1 trial: BNC105P in combination with everolimus, progression free survival; assay type: in vivo, human; conditions: all patients; 10 mg oral everolimus daily, with or without 16 mg/m^2 BNC105P i.v. on days 1 and 8 of 21 day cycle; FIG. 2
Text: A control group of patients received everolimus alone.
The medical histories of patients were obtained prior to commencement of the study.
All patients in the study were followed for disease progression and survival. Prior to commencing treatment, patients enrolled in the study were subject to disease assessment including: CT of chest, abdomen and pelvis; CT of the head or brain MRI; bone scan; echocardiography (ECHO) or multiple gated acquisition scan (MUGA). At every 3 cycles of treatment, CT scans of chest, abdomen and pelvis, and bone scans were performed to determine disease progression.
Time to disease progression was determined as a measurement from the start of the treatment until the criteria for disease progression is met (or death occurs), taking as reference the smallest measurements recorded since the treatment started. […]

tubulin = assay: Tubulin polymerisation inhibition; assay type: biochemical

For `COc1cc(C(=O)c2c(C)oc3c(OP(=O)([O-])[O-])c(OC)ccc23)cc(OC)c1OC.[Na+].[Na+]` [BNC105P, disodium [6-methoxy-2-methyl-3-(3,4,5-trimethoxybenzoyl)-1-benzofuran-7-yl] phosphate], the maximum tolerated dose [1] was 16 mg/m^2.
For `COc1ccc(/C=C\c2cc(OC)c(OC)c(OC)c2)cc1O` [Combretastatin A4, reference compound], the “selectivity between activated (tumour) and quiescent (normal) endothelial cells (in words)” value [2] was “equally potent against quiescent and activated endothelial cells”.
With `CO[C@H]1C[C@@H]2CC[C@@H](C)[C@@](O)(O2)C(=O)C(=O)N2CCCC[C@H]2C(=O)O[C@H]([C@H](C)C[C@@H]2CC[C@@H](OCCO)[C@H](OC)C2)CC(=O)[C@H](C)/C=C(\C)[C@@H](O)[C@@H](OC)C(=O)[C@H](C)C[C@H](C)/C=C/C=C/C=C/1C` [everolimus] the “patients free of disease progression at 6 months” value [3] was 20 patients.
With `COc1cc(C(=O)c2c(C)oc3c(O)c(OC)ccc23)cc(OC)c1OC` [formula III, 2-methyl-7-hydroxy-3-(3,4,5-trimethoxybenzoyl)-6-methoxybenzofuran] the “tubulin polymerisation inhibition (in words)” value (tubulin) was “potent tubulin polymerisation inhibitors” and the “selectivity between activated (tumour) and quiescent (normal) endothelial cells (in words)” value [2] was “show selectivity towards tumor endothelial cells (activated) over normal endothelial cells (quiescent)”.
